From patent publication US20050203067A1, “Pesticidal compositions and methods” (priority 2003, published 2005)
Converted amounts (≈) assume the structure as drawn. “And” between values parts separate entries of the source, which are not always exact repeats. Identical values can stand only once. “Also recorded” adds a separate entry of the source. Like-named read-outs stand apart in the source and are kept apart here.

Assays:
C. elegans (strain N2) = test: C. elegans contact assay (NGM-agar, 24-well); type: in vivo
C. elegans [1] = test: C. elegans liquid (well) assay; type: in vivo; settings: Caenorhabditis elegans, read-out: Well EC50
C. elegans [2] = test: C. elegans agar (plate) assay; type: in vivo; settings: Caenorhabditis elegans, read-out: Plate EC50
Cephalobus sp. = test: Nematicidal activity against other nematodes (F1 phenotype); type: in vivo
A. ellesmerensis = test: as above; type: in vivo, Acrobiloides ellesmerensis
C. elegans [3] = test: Nematicidal activity of ethanolamine-like compounds on NGM plates (L4 P0, F1 phenotype); type: in vivo, Caenorhabditis elegans
[4] = system: C. elegans PEAMT1 RNAi-generated mutants; type: in vivo; settings: for rescue of PEAMT1 mutants: 5 mM
[5] = system: C. elegans PEAMT2 RNAi-generated mutants; settings: in vivo
[6] = system: Meloidogyne incognita J2 larvae; test: Miniaturized greenhouse assay on cucumber seedlings, root gall rating; type: in vivo; settings: for Gall 40 (gall rating): 40 ppm; for Gall 200 (gall rating): 200 ppm
cucumber seedling = test: Miniaturized greenhouse assay, phytotoxicity rating; settings: for Ptox 40 (phytotoxicity rating): 40 ppm; for Ptox 200 (phytotoxicity rating): 200 ppm
P. falciparum = settings: cited from earlier work
P. falciparum PEAMT = P. falciparum PEAMT (Plasmodium falciparum, UniProt Q8IDQ9); settings: cited from earlier work
Sequence of P. falciparum PEAMT (Q8IDQ9 whole entry): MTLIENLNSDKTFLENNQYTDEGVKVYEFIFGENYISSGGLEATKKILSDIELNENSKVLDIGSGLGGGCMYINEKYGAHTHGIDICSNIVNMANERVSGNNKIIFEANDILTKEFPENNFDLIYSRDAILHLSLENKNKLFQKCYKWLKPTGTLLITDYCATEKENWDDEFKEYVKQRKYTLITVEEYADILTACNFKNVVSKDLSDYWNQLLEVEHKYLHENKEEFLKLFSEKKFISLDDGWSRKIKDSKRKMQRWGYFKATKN

[7] = Caenorhabditis elegans, average number of adults in 4 replicate wells 96 hours after challenge, 20° C., read-out: EC50
[8] = 10 days after inoculation, rating scale 0-3 (% root mass galled)
[9] = rating scale 0-3 (% plant weight reduction)
[10] = L4 P0 on NGM plates, 23° C., visual observation over several days

O=S(=O)(F)CCn1nnc2ccccc21 [Compound 3745, 2-Benzotriazol-1-yl-ethanesulfonylfluoride]
EC50 (C. elegans (strain N2); in vivo, read-out: EC50): 1700 µM and 1340 µM

OCCNCc1ccccc1 [Compound 3702, 2-Benzylaminoethanol]
EC50 (C. elegans (strain N2); [7]): 3400 µM

O=C1CSC(=S)N1c1ccc(/N=N/c2ccc([N+](=O)[O-])cc2)cc1 [DC3833, 3-[4-(4-Nitro-phenylazo)-phenyl]-2-thioxo-thiazolidin-4-one]
EC50 (C. elegans [1]; liquid (well) assay, 20° C.): 12.5 to 25 µg/mL (≈ 34.9 to 69.8 µM)
EC50 (C. elegans [2]; agar (plate) assay, 20° C.): 6.2 µg/mL (≈ 17.3 µM)

O=[N+]([O-])c1ccc(N=Nc2ccccc2)cc1 [DC3898, (4-Nitro-phenyl)-phenyl-diazene]
EC50 (C. elegans [1]; liquid (well) assay, 20° C.): 1.6 µg/mL (≈ 7.04 µM)

CN(C)c1ccc(/N=N/c2ccccn2)cc1 [DC3791, Dimethyl-[4-(pyridin-2-ylazo)-phenyl]-amine]
EC50 (C. elegans [1]; liquid (well) assay, 20° C.): 25 to 50 µg/mL (≈ 110 to 221 µM)
EC50 (C. elegans [2]; agar (plate) assay, 20° C.): 12.5 to 25 µg/mL (≈ 55.2 to 110 µM)

2-[(4-phenylazo)phenylanilino]ethanesulfonamide [Compound 3770]
EC50 (C. elegans (strain N2); average number of adults in 4 replicate wells 96 hours after challenge, 20° C., read-out: EC50): 20 µM

N[C@@H](CO)Cc1ccccc1 [Compound 3704, D-Phenylalaninol]
F1 PHENOTYPE (Cephalobus sp.; in vivo): L1/L2 arrest/lethality
F1 PHENOTYPE (A. ellesmerensis; in vivo): L1/L2 arrest/lethality
EC50 (C. elegans (strain N2); Caenorhabditis elegans, 96 h): 2500 µM
F1 PHENOTYPE (C. elegans [3]; in vivo): L1/L2 arrest/lethality
nematicidal activity against C. elegans (C. elegans [3]; in vivo): showed nematicidal activity

CN(C)CCO [DME, dimethylethanolamine]
rescue of PEAMT1 mutants [4]: rescued
F1 phenotype PEAMT1 dsRNA ([4]; in vivo): Fertile adults
rescue of the sterility associated with PEAMT1 RNAi ([4]; in vivo): rescues the sterility
F1 phenotype PEAMT2 dsRNA [5]: Sterility; also recorded: L1/L2 arrest/lethality

Cc1ccc(/N=N/c2ccc(N(C)C)cc2)cc1 [DC3785, Dimethyl-(4-p-tolylazo-phenyl)-amine]
EC50 (C. elegans [1]; liquid (well) assay, 20° C.): 6.3 to 12.5 µg/mL (≈ 26.3 to 52.2 µM)
EC50 (C. elegans [2]; agar (plate) assay, 20° C.): > 100 µg/mL

CN(C)c1ccc(/N=N/c2ccc(NCCS(=O)(=O)F)cc2)cc1 [Compound 3767, 2-[4-(4-dimethylamino-phenylazo)-phenylamino]-ethanesulfonyl fluoride]
EC50 (C. elegans (strain N2); Caenorhabditis elegans, 96 h): 7 µM

O=C1CCC(=O)N1CCS(=O)(=O)F [Compound 3743, 2,5-Dioxo-1-pyrrolidineethanesulfonyl fluoride]
EC50 (C. elegans (strain N2); in vivo, read-out: EC50): 1300 µM

CCN(C)c1ccc(/N=N/c2ccccc2)cc1 [Compound 3761, 4-N-ethyl-N-methylaminoazobenzene]
Gall 40 (gall rating) [6, 8]: 0.67
Gall 200 (gall rating) [6, 8]: 0.00
Ptox 40 (phytotoxicity rating) (cucumber seedling; [9]): 0.00
Ptox 200 (phytotoxicity rating) (cucumber seedling; [9]): 1.00
EC50 (C. elegans (strain N2); [7]): 7 µM
EC50 (C. elegans [1]; liquid (well) assay, 20° C.): 6.3 to 12.5 µg/mL (≈ 26.3 to 52.2 µM)
EC50 (C. elegans [2]; agar (plate) assay, 20° C.): 0.8 µg/mL (≈ 3.34 µM)

CN(C)c1ccc(/N=N/c2ccccc2)cc1 [DC3783, Dimethyl-(4-phenylazo-phenyl)-amine]
EC50 (C. elegans [1]): 0.4 to 0.78 µg/mL (≈ 1.78 to 3.46 µM)
EC50 (C. elegans [2]): 1.6 µg/mL (≈ 7.1 µM)

O=S(=O)(F)CCNc1ccc(Cl)cc1 [Compound 3738, 2-4-chlorophenylaminoethanesulfonyl fluoride]
EC50 (C. elegans (strain N2); in vivo, read-out: EC50): 82 µM

CNCCO [MME, monomethylethanolamine]
rescue of PEAMT1 mutants [4]: rescued
F1 phenotype PEAMT1 dsRNA ([4]; in vivo): Fertile adults
F1 phenotype PEAMT2 dsRNA [5]: L1/L2 arrest/lethality

Cc1ccccc1/N=N/c1ccc(N(C)C)cc1 [DC3832, Dimethyl-(4-o-tolylazo-phenyl)-amine]
EC50 (C. elegans [1]; liquid (well) assay, 20° C.): 1.5 to 3.1 µg/mL (≈ 6.27 to 13 µM)
EC50 (C. elegans [2]; agar (plate) assay, 20° C.): 1.6 µg/mL (≈ 6.69 µM)

CN(C)c1ccc(C(=O)c2ccccc2)cc1 [DC3890, (4-Dimethylamino-phenyl)-phenyl-methanone]
EC50 (C. elegans [1]; liquid (well) assay, 20° C.): 12 µg/mL (≈ 53.3 µM)

O=S(=O)(F)CCNc1ccccc1 [Compound 3754, 2-phenylaminoethanesulfonyl fluoride]
EC50 (C. elegans (strain N2); in vivo, read-out: EC50): 940 µM and 570 µM

CNc1ccc(N=Nc2ccccc2)cc1 [DC3845, Methyl-(4-phenylazo-phenyl)-amine]
Gall 40 (gall rating) [6]: 0.33
Gall 200 (gall rating) [6]: 0.00
Ptox 40 (phytotoxicity rating) (cucumber seedling): 1.00
Ptox 200 (phytotoxicity rating) (cucumber seedling): 3.00
EC50 (C. elegans [1]): 0.4 to 0.8 µg/mL (≈ 1.89 to 3.79 µM)
EC50 (C. elegans [2]): 0.4 µg/mL (≈ 1.89 µM)

CN(C)c1ccc(/N=N/c2ccccn2)c(O)c1 [DC3829, 5-Dimethylamino-2-(pyridin-2-ylazo)-phenol]
EC50 (C. elegans [1]; liquid (well) assay, 20° C.): 6.2 to 12.5 µg/mL (≈ 25.6 to 51.6 µM)
EC50 (C. elegans [2]; agar (plate) assay, 20° C.): 3.2 µg/mL (≈ 13.2 µM)

CCNc1ccc(/N=N/c2ccc(Br)cc2)cc1 [DC3800, [4-(4-Bromo-phenylazo)-phenyl]-ethyl-amine]
Gall 40 (gall rating) [6, 8]: 1.33
Gall 200 (gall rating) [6, 8]: 0.00
Ptox 40 (phytotoxicity rating) (cucumber seedling; [9]): 0.00
Ptox 200 (phytotoxicity rating) (cucumber seedling; [9]): 2.67
EC50 (C. elegans [1]; liquid (well) assay, 20° C.): 0.2 to 0.4 µg/mL (≈ 0.657 to 1.31 µM)
EC50 (C. elegans [2]; agar (plate) assay, 20° C.): 0.4 µg/mL (≈ 1.31 µM)

CCNc1ccccc1 [Compound 3766, N-ethylaniline]
EC50 (C. elegans (strain N2); [7]): 360 µM

CCCCCCCCCCCCCCCCOP(=O)([O-])OCC[N+](C)(C)C [miltefosine]
parasite proliferation within human erythrocytes (P. falciparum): inhibits parasite proliferation
inhibition of the plasmodium PEAMT enzyme (P. falciparum PEAMT): inhibited

CC(=O)Nc1ccc(/N=N/c2ccccc2)cc1Cl [DC3796, N-(2-Chloro-4-phenylazo-phenyl)-acetamide]
EC50 (C. elegans [1]; liquid (well) assay, 20° C.): 3.2 to 6.3 µg/mL (≈ 11.7 to 23 µM)
EC50 (C. elegans [2]; agar (plate) assay, 20° C.): 6.3 µg/mL (≈ 23 µM)

O=[N+]([O-])c1ccc(/N=N/c2ccc(O)cc2)cc1 [DC3844, 4-(4-Nitro-phenylazo)-phenol]
EC50 (C. elegans [1]; liquid (well) assay, 20° C.): 3.1 to 6.2 µg/mL (≈ 12.7 to 25.5 µM)
EC50 (C. elegans [2]; agar (plate) assay, 20° C.): 6.25 µg/mL (≈ 25.7 µM)

CN(C)c1ccc(/N=N/c2cccc(Cl)c2)cc1 [DC3853, [4-(3-Chloro-phenylazo)-phenyl]-dimethyl-amine]
EC50 (C. elegans [1]; liquid (well) assay, 20° C.): 0.4 µg/mL (≈ 1.54 µM)
EC50 (C. elegans [2]; agar (plate) assay, 20° C.): 0.4 µg/mL (≈ 1.54 µM)

CCNc1ccc(/N=N/c2ccc(C)cc2)cc1 [DC3801, Ethyl-(4-p-tolylazo-phenyl)-amine]
Gall 40 (gall rating) [6, 8]: 1.33
Gall 200 (gall rating) [6, 8]: 0.00
Ptox 40 (phytotoxicity rating) (cucumber seedling; [9]): 1.67
Ptox 200 (phytotoxicity rating) (cucumber seedling; [9]): 3.00
EC50 (C. elegans [1]; liquid (well) assay, 20° C.): 0.2 to 0.4 µg/mL (≈ 0.836 to 1.67 µM)
EC50 (C. elegans [2]; agar (plate) assay, 20° C.): 0.4 µg/mL (≈ 1.67 µM)

COc1ccc(/N=N/c2ccc3c(c2)CCCN3C)cc1 [DC3821, (4-Methoxy-phenyl)-(1-methyl-1,2,3,4-tetrahydro-quinolin-6-yl)-diazene]
EC50 (C. elegans [1]; liquid (well) assay, 20° C.): 0.8 to 1.6 µg/mL (≈ 2.84 to 5.69 µM)
EC50 (C. elegans [2]; agar (plate) assay, 20° C.): 1.6 µg/mL (≈ 5.69 µM)

O=C1C=CC(=O)N1c1ccc(/N=N/c2ccccc2)cc1 [DC3792, 1-(4-Phenylazo-phenyl)-pyrrole-2,5-dione]
EC50 (C. elegans [1]; liquid (well) assay, 20° C.): 3.2 to 6.3 µg/mL (≈ 11.5 to 22.7 µM)
EC50 (C. elegans [2]; agar (plate) assay, 20° C.): > 100 µg/mL

O=S(=O)(F)CCn1cnc2ccccc21 [Compound 3747, 2-Benzoimidazol-1-yl-ethanesulfonyl fluoride]
EC50 (C. elegans (strain N2); in vivo, read-out: EC50): 1400 µM

OCCNc1ccccc1 [Compound 3733, N-(2-Hydroxyethyl)aniline]
EC50 (C. elegans (strain N2); [7]): 4200 µM
F1 PHENOTYPE (C. elegans [3]; C. elegans, 10 mM): L1/L2 arrest/lethality
nematicidal activity against C. elegans (C. elegans [3]; [10]): showed nematicidal activity

CN1CCCc2cc(/N=N/c3ccc(Br)cc3)ccc21 [DC3819, (4-Bromo-phenyl)-(1-methyl-1,2,3,4-tetrahydro-quinolin-6-yl)-diazene]
EC50 (C. elegans [1]; liquid (well) assay, 20° C.): 0.4 to 0.8 µg/mL (≈ 1.21 to 2.42 µM)
EC50 (C. elegans [2]; agar (plate) assay, 20° C.): 0.8 µg/mL (≈ 2.42 µM)

COc1ccc(NCCS(=O)(=O)F)cc1 [Compound 3736, 2-4-methoxy-phenylaminoethanesulfonyl fluoride]
EC50 (C. elegans (strain N2); in vivo, read-out: EC50): 500 µM

NCC(O)c1ccccc1 (stereo not drawn) [2-amino-1-phenylethanol]
F1 PHENOTYPE (C. elegans [3]; C. elegans, 25 mM): Wild-type development
nematicidal activity against C. elegans (C. elegans [3]; [10]): no nematicidal effect

NCCO [EA, ethanolamine]
F1 phenotype PEAMT1 dsRNA ([4]; in vivo): L1/L2 arrest/lethality
F1 phenotype PEAMT2 dsRNA [5]: L1/L2 arrest/lethality

Cc1cc(N(C)C)ccc1/N=N/c1ccccc1 [DC3787, Dimethyl-(3-methyl-4-phenylazo-phenyl)-amine]
EC50 (C. elegans [1]; liquid (well) assay, 20° C.): 0.4 to 0.78 µg/mL (≈ 1.67 to 3.26 µM)
EC50 (C. elegans [2]; agar (plate) assay, 20° C.): 1.6 µg/mL (≈ 6.69 µM)

CC(C)(C)NCCO [Compound 3703, 2-(tert-Butylamino)ethanol]
F1 PHENOTYPE (Cephalobus sp.; Cephalobus sp., 10 mM): L1/L2 arrest/lethality
F1 PHENOTYPE (A. ellesmerensis; A. ellesmerensis, 10 mM): L1/L2 arrest/lethality
EC50 (C. elegans (strain N2); [7]): 4100 µM
F1 PHENOTYPE (C. elegans [3]; C. elegans, 10 mM): L1/L2 arrest/lethality
nematicidal activity against C. elegans (C. elegans [3]; [10]): showed nematicidal activity

CN(C)c1ccc(/C=C/C(=O)c2ccccc2)cc1 [DC3901, 3-(4-Dimethylamino-phenyl)-1-phenyl-propenone]
EC50 (C. elegans [1]; liquid (well) assay, 20° C.): 12.5 µg/mL (≈ 49.7 µM)
